Measured values from patent publication US6294555A, “1-[(1-Substituted-4-piperidinyl)methyl]-4-piperidine derivative, process for producing the same, medicinal compositions containing the same and intermediates of these compounds” (Dainippon Pharmaceutical Co., Ltd., priority 1998, dated 2001).

Tests used:
dopamine D2 receptors = settings: background art; cited from earlier work
[1] = background art; cited from earlier work
5-HT4 receptors = settings: background art, J. Pharmacol. Exp. Ther., 1990, 252, 1378; 1991, 257, 781; cited from earlier work
[2] = target: T1, Serotonin 4 (5-HT4) Receptors (Cavia porcellus, UniProt O70528); test: Binding Assay on Serotonin 4 (5-HT4) Receptors ([3H]-GR113808, striatum membrane fractions); set-up: species or system guinea pig (Std-Hartley); settings: 50% inhibition of specific binding of 0.1 nM [3H]-GR113808; 37° C., 30 min; test compounds are fumarates except numbers marked ** (62, 72, 74: free bases)
T1 construct: the striatum was dissected; from tissue; host or cells: guinea pig (Std-Hartley) brain striatum, membrane fractions
T1 sequence (O70528 whole entry): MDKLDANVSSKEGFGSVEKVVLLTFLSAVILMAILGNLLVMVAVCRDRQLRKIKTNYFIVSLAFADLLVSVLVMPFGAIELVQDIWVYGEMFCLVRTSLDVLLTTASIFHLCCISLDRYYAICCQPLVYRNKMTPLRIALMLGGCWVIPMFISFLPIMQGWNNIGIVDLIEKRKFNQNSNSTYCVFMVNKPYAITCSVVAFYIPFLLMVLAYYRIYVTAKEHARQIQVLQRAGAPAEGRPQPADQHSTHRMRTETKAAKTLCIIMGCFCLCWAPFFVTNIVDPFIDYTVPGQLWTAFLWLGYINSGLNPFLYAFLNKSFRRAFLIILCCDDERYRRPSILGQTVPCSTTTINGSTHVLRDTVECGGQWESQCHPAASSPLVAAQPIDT
Protocol: Std-Hartley guinea pigs weighing 300-400 g were decapitated, and the brain thereof was immediately taken out, and the striatum was dissected. To the tissue thus obtained was added 15-times volume of Hepes buffer (50 mM, pH7.4, 4° C.), homogenized in a Teflon homogenizer, and centrifuged at 48,000×g at 4° C. for 15 minutes. The pellet was suspended in the same Hepes buffer in a volume of 1 ml per 30 mg of the wet tissues to give receptor membrane fractions.
The reaction was terminated by rapid vacuum filtration and washing (3×4 ml) with ice-cold 50 mM Tris-HCl buffer (pH 7.7) through Whatman GF/B filter paper using a Brandel cell harvester. Prior to the filtration, the filter to be used was presoaked in a 0.1% solution of polyethylenimine for one hour. The radioactivity on the filter was determined with by ACS-II scintillation cocktail by a liquid scintillation counter.

[3] = system: Mice of Std-ddY strain (evacuation); test: Assay on Evacuation in Mice (fecal pellets, oral); assay type: in vivo, mouse (Std-ddY, male); set-up: key: -: Inactive; +: Moderately stimulated (P<0.05); ++: Markedly stimulated (p<0.01); settings: 1 mg/kg oral; fecal pellets at 30, 60 and 120 minutes; Dunnett's test; fumarates except numbers marked ** (25, 86: free bases)
Protocol: Male mice of Std-ddY strain weighing 25-30 g were used. Free access to food and water was allowed up to the beginning of the procedure.
The mice (each group: five mice) were placed in a mesh bottom cage for fasting, and they were allowed for acclimation to new environment for about one hour prior to the start of the experiment. A test compound, which was previously suspended in the 0.5% tragacanth solution, was administered orally to the mice at a dose of 1 mg/kg. The fecal pellets were counted and collected at 30, 60 and 120 minutes after the treatment of a test compound, and weighed.
The statistical judgment of efficacy was carried out between the control group and the treated group, and determined by Dunnett's test.

[4] = Acute Toxicity (intravenous, lethality over 7 days); settings: mouse, in vivo, mice, observed for 7 days, read-out: 50% lethal dose (LD50)
Protocol: Male mice of Std-ddY strain weighing 25-30 g were used in a group of 5 animals. A test compound was suspended in physiological saline solution or 1% lactose solution and administered intravenously to the mice. […] The LD50 doses of the compounds of Examples 1, 10, 12, 18, 20, 21, 25 and 26 were all more than 100 mg/kg.

COc1cc(N)c(Cl)cc1C(=O)N[C@H]1CCN(CCCOc2ccc(F)cc2)C[C@H]1OC (relative stereo) [Comp. A, cis-4-amino-5-chloro-N-[1-[3-(4-fluorophenoxy)-propyl]-3-methoxy-4-piperidinyl]-2-methoxybenzamide]
inhibitory effects on the central nervous system / dopamine D2 antagonism (dopamine D2 receptors): inhibitory effects on the central nervous system based on the antagonistic activity against dopamine D2 receptors
side effects on the heart [1]: side effects on the heart
gastrointestinal motility (5-HT4 receptors): enhance the gastrointestinal motility by stimulating 5-HT4 receptors

COc1cc(N)c(Cl)cc1C(=O)NC1CCN(CC2CCN(C(=O)N(C)C)CC2)CC1 [Example 1, 4-amino-5-chloro-N-[1-(1-dimethylcarbamoyl-4-piperidinylmethyl)-4-piperidinyl]-2-methoxybenzamide]
IC50 [2]: 11.9 nM
Effect (evacuation) [3]: ++
LD50 at 168 h [4]: > 100 mg/kg

COc1cc(N)c(Cl)cc1C(=O)NC1CCN(CC2CCN(C(=S)N(C)C)CC2)CC1 [Example 10, 4-amino-5-chloro-N-[1-(1-dimethylthiocarbamoyl-4-piperidinylmethyl)-4-piperidinyl]-2-methoxybenzamide]
IC50 [2]: 8 nM
Effect (evacuation) [3]: ++
LD50 at 168 h [4]: > 100 mg/kg

COc1cc(N)c(Cl)cc1C(=O)NC1CCN(CC2CCN(C(=O)N3CCCC3)CC2)CC1 [Example 12, 4-amino-5-chloro-2-methoxy-N-[1-[1-(1-pyrrolidinecarbonyl)-4-piperidinylmethyl]-4-piperidinyl]benzamide]
IC50 [2]: 8.7 nM
Effect (evacuation) [3]: ++
LD50 at 168 h [4]: > 100 mg/kg

CN(C)C(=O)N1CCC(CN2CCC(NC(=O)c3cc(Cl)c(N)c4c3OCC4)CC2)CC1 [Example 18, 4-amino-5-chloro-N-[1-(1-dimethylcarbamoyl-4-piperidinylmethyl)-4-piperidinyl]-2,3-dihydrobenzo[b]furan-7-carboxamide]
IC50 [2]: 3.3 nM
Effect (evacuation) [3]: ++
LD50 at 168 h [4]: > 100 mg/kg

CN(C)C(=S)N1CCC(CN2CCC(NC(=O)c3cc(Cl)c(N)c4c3OCC4)CC2)CC1 [Example 20, 4-amino-5-chloro-N-[1-(1-dimethylthiocarbamoyl-4-piperidinylmethyl)-4-piperidinyl]-2,3-dihydrobenzo[b]furan-7-carboxamide]
IC50 [2]: 1.3 nM
Effect (evacuation) [3]: ++
LD50 at 168 h [4]: > 100 mg/kg

Nc1c(Cl)cc(C(=O)NC2CCN(CC3CCN(C(=O)N4CCCC4)CC3)CC2)c2c1CCO2 [Example 21, 4-amino-5-chloro-N-[1-[1-(1-pyrrolidinecarbonyl)-4-piperidinylmethyl)-4-piperidinyl]-2,3-dihydrobenzo[b]furan-7-carboxamide]
IC50 [2]: 2.4 nM
Effect (evacuation) [3]: ++
LD50 at 168 h [4]: > 100 mg/kg

CCOc1cc(N)c(Cl)cc1C(=O)NC1CCN(CC2CCN(C(=O)N(C)C)CC2)CC1 [Example 25, 4-amino-5-chloro-N-[1-(1-dimethylcarbamoyl-4-piperidinylmethyl)-4-piperidinyl]-2-ethoxybenzamide]
IC50 [2]: 4.2 nM
Effect (evacuation) [3]: ++
LD50 at 168 h [4]: > 100 mg/kg

COc1cc(N)c(Br)cc1C(=O)NC1CCN(CC2CCN(C(=O)N(C)C)CC2)CC1 [Example 26, 4-amino-5-bromo-N-[1-(1-dimethylcarbamoyl-4-piperidinylmethyl)-4-piperidinyl]-2-methoxybenzamide]
IC50 [2]: 11.5 nM
Effect (evacuation) [3]: +
LD50 at 168 h [4]: > 100 mg/kg

CC(C)Oc1cc(N)c(Cl)cc1C(=O)NC1CCN(CC2CCN(C(=O)N(C)C)CC2)CC1 [Example 30, 4-amino-5-chloro-N-[1-(1-dimethylcarbamoyl-4-piperidinylmethyl)-4-piperidinyl]-2-isopropoxybenzamide]
IC50 [2]: 4.3 nM
Effect (evacuation) [3]: ++

CCOc1cc(N)c(Cl)cc1C(=O)NC1CCN(CC2CCN(C(=O)N3CCCC3)CC2)CC1 [Example 32]
IC50 [2]: 3.2 nM
Effect (evacuation) [3]: +

COc1cc(N)c(Br)cc1C(=O)NC1CCN(CC2CCN(C(=O)N3CCCC3)CC2)CC1 [Example 34, 4-amino-5-bromo-2-methoxy-N-[1-[1-(1-pyrrolidinecarbonyl)-4-piperidinylmethyl]-4-piperidinyl]benzamide]
IC50 [2]: 8.9 nM
Effect (evacuation) [3]: ++

COc1cc(N)c(Cl)cc1C(=O)NC1CCN(CC2CCN(C(=O)Nc3ccccc3)CC2)CC1 [Example 37, 4-amino-5-chloro-2-methoxy-N-[1-(1-phenylcarbamoyl-4-piperidinylmethyl)-4-piperidinyl]benzamide]
IC50 [2]: 1.1 nM
Effect (evacuation) [3]: ++

Nc1c(Cl)cc(C(=O)NC2CCN(CC3CCN(C(=O)Nc4ccccc4)CC3)CC2)c2c1CCO2 [Example 52, 4-amino-5-chloro-N-[1-(1-phenylcarbamoyl-4-piperidinylmethyl)-4-piperidinyl]-2,3-dihydrobenzo[b]furan-7-carboxamide]
IC50 [2]: 0.36 nM
Effect (evacuation) [3]: ++

CCOc1cc(N)c(Cl)cc1C(=O)NC1CCN(CC2CCN(C(=O)CCOC)CC2)CC1 [Example 81, 4-amino-5-chloro-2-ethoxy-N-[1-[1-(3-methoxypropionyl)-4-piperidinylmethyl]-4-piperidinyl]benzamide]
IC50 [2]: 7.7 nM
Effect (evacuation) [3]: ++

CCC(=O)CN1CCC(CN2CCC(NC(=O)c3cc(Cl)c(N)cc3OC)CC2)CC1 [Example 86]
IC50 [2]: 8.3 nM
Effect (evacuation) [3]: ++

CCN(CC)CCNC(=O)c1cc(Cl)c(N)cc1OC [metoclopramide]
gastrointestinal motility (5-HT4 receptors): enhance the gastrointestinal motility by stimulating 5-HT4 receptors
